Experiment [1] concerns the target Vascular endothelial growth factor receptor 2 (Homo sapiens, UniProt P35968). Type of experiment: functional.
Another experiment concerns the target Adenosine receptor A2a (Homo sapiens, UniProt P29274).
For experiment [2], the target named is T1, Alpha-2A adrenergic receptor (Homo sapiens, UniProt P08913).
T1 sequence (P08913 whole entry): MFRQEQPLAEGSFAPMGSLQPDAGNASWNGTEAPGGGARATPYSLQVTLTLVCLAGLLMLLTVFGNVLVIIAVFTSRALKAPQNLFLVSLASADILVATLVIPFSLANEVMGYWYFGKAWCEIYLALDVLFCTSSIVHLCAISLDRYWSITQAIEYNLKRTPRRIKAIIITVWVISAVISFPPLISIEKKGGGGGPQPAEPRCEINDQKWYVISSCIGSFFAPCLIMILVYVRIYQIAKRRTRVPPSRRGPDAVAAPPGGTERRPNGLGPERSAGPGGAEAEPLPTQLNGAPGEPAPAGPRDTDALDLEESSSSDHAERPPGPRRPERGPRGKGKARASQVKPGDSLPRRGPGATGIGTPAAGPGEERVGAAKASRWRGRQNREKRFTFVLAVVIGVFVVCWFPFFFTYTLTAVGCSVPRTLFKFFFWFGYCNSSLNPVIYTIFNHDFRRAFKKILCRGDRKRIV
It counts as functional, cell-based.

Another experiment deals with Vasopressin V2 receptor (Homo sapiens, UniProt P30518).
Sequence of Vasopressin V2 receptor (P30518 whole entry): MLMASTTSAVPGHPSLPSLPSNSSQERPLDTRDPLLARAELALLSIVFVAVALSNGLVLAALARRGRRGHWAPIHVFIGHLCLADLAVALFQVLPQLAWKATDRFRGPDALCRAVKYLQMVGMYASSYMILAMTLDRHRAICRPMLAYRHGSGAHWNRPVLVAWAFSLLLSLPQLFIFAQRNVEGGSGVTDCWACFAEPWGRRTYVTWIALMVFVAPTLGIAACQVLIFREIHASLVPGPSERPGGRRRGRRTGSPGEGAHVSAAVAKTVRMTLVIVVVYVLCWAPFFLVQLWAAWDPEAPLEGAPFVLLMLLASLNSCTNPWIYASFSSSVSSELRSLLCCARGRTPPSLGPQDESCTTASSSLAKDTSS
For experiment [3], the target named is T2, Gastrin/cholecystokinin type B receptor (Homo sapiens, UniProt P32239).
T2 sequence (P32239 whole entry): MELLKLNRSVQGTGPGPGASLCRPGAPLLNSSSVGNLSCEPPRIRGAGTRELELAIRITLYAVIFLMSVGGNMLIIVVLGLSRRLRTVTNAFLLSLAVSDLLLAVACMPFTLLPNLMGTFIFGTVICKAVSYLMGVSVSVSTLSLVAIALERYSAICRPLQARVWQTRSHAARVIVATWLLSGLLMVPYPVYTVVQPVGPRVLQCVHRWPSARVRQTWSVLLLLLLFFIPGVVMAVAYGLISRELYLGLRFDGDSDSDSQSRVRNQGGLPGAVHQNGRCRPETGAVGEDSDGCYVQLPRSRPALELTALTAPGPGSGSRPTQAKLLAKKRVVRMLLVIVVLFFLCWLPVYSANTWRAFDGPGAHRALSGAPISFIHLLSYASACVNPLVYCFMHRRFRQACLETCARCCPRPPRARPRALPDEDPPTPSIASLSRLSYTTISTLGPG

The target in experiment [4] is 5-hydroxytryptamine receptor 2B (Homo sapiens, UniProt P41595). Type of experiment: functional, cell-based.
Sequence of 5-hydroxytryptamine receptor 2B (P41595 whole entry): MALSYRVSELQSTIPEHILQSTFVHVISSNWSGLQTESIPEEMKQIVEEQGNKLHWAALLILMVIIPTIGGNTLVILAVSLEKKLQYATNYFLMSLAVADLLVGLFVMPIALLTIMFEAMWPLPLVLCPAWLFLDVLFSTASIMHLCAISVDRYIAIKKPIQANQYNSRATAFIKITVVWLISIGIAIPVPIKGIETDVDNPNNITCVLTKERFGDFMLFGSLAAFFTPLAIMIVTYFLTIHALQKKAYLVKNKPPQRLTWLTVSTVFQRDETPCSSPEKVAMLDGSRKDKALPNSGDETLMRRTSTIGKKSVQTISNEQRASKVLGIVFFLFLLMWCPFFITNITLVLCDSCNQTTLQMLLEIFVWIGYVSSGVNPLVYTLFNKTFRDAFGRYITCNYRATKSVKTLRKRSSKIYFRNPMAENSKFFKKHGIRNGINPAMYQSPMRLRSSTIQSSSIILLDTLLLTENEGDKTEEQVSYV
A further experiment concerns the target T3, Progesterone receptor (Homo sapiens, UniProt P06401).
T3 sequence (P06401 whole entry): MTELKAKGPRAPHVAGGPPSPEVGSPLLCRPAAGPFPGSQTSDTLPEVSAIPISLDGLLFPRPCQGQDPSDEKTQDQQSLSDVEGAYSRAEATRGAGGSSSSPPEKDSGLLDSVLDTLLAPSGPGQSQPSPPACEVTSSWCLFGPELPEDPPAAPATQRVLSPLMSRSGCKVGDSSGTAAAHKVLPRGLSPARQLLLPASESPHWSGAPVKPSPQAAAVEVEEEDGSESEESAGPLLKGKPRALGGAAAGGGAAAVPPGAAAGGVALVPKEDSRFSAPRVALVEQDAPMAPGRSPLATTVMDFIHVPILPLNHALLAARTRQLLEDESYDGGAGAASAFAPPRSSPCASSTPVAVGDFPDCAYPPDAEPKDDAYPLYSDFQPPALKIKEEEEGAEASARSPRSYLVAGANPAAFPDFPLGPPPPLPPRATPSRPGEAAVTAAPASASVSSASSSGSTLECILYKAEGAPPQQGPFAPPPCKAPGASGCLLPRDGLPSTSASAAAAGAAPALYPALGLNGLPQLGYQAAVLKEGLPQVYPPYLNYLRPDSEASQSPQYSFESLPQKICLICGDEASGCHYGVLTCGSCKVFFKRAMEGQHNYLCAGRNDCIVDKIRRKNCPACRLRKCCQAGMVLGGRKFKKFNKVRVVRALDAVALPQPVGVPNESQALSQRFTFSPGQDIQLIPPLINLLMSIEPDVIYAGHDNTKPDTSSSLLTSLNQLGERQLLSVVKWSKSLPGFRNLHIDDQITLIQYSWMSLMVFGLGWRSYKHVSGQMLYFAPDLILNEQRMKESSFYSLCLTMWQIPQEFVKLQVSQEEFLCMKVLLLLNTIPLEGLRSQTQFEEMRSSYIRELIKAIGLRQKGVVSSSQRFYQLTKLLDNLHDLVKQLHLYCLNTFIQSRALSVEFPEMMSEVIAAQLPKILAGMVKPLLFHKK
Type of experiment: functional.

“And” between values parts separate entries of the source, which are not always exact repeats. Equal values may be shown once. A value given as a limit tells only on which side of the number the result lay.
Note: assay procedure not described here.

Sequence of Adenosine receptor A2a (P29274 whole entry): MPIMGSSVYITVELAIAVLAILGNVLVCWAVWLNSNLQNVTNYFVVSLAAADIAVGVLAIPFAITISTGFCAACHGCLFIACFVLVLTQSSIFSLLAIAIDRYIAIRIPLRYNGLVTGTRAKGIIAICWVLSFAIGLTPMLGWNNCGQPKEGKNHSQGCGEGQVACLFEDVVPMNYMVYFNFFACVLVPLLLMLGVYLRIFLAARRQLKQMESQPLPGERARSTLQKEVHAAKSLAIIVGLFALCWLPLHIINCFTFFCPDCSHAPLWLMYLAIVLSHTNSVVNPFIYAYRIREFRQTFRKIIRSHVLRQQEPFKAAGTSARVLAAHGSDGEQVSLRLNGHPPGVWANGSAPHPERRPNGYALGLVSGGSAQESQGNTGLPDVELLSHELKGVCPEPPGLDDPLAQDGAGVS
Sequence of Vascular endothelial growth factor receptor 2 (P35968 whole entry): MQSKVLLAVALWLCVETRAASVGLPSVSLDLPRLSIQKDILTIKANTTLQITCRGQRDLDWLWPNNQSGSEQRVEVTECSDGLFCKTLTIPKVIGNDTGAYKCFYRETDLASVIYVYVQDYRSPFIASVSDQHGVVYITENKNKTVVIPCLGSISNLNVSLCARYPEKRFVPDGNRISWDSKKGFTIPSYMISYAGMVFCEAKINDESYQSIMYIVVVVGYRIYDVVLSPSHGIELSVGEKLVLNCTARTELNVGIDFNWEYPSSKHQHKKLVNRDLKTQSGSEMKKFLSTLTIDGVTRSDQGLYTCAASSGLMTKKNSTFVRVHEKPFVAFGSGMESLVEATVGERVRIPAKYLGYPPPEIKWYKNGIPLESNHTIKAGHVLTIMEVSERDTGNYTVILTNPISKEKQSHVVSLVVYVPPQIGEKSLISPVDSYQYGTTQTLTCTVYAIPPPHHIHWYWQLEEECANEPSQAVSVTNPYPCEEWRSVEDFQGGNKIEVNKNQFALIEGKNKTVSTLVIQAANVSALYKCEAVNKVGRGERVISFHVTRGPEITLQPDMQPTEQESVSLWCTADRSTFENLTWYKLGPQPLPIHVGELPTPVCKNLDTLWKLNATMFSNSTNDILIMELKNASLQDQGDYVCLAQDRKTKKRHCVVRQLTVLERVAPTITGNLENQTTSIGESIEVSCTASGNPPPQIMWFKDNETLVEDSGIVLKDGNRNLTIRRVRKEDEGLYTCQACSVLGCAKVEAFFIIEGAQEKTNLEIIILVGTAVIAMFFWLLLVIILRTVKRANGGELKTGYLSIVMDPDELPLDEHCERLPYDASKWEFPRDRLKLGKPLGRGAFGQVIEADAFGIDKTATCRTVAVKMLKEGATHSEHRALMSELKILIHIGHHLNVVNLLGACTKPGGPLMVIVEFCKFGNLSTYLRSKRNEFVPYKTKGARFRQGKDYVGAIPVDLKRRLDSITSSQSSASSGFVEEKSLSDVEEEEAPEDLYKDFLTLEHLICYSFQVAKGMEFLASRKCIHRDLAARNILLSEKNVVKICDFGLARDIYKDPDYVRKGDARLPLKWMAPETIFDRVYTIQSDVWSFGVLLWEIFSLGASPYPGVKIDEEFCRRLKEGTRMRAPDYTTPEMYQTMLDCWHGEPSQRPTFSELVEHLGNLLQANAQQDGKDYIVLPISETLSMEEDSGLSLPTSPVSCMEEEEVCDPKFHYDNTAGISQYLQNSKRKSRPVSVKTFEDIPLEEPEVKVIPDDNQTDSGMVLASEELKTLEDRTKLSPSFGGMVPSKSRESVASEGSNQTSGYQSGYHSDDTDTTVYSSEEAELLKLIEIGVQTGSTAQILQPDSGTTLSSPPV

In turn, `CC1=C(/C=C/C(C)=C/C=C/C(C)=C/C(=O)O)C(C)(C)CCC1` [TRETINOIN] showed an AC50 in experiment [1] greater than 30 µM.
`C[C@H]1O[C@@H](n2cc(F)c(=O)[nH]c2=O)[C@H](O)[C@@H]1O` [DOXIFLURIDINE] had an AC50 in experiment [1] greater than 30 µM.
Still for that read-out and setting: with `C[N+](C)(C)C[C@H](O)CC(=O)[O-]` [LEVOCARNITINE] the figure was greater than 30 µM.
Consider `CC(C)N(CCC(C(N)=O)(c1ccccc1)c1ccccn1)C(C)C` (stereo not given) [DISOPYRAMIDE], for which the AC50 at Adenosine receptor A2a is greater than 30 µM; in experiment [2], greater than 10 µM; at Vasopressin V2 receptor it was greater than 30 µM; in experiment [3] it was greater than 30 µM; in experiment [4] it was greater than 10 µM; at Progesterone receptor it was greater than 30 µM.
For the compound `CN(C)CC[C@@H](c1ccc(Cl)cc1)c1ccccn1` [DEXCHLORPHENIRAMINE], the half-maximal activity concentration (AC50) (at Adenosine receptor A2a; in experiment [2]; on Vasopressin V2 receptor; in experiment [3]; in experiment [4]; at Progesterone receptor) was greater than 30 µM in each case.
In the case of `COc1ccccc1OCCNCC(O)COc1cccc2[nH]c3ccccc3c12` (stereo not given) [CARVEDILOL], the AC50 (on Adenosine receptor A2a; in experiment [2]; on Vasopressin V2 receptor; in experiment [3]; in experiment [4]; at Progesterone receptor) was greater than 30 µM throughout.
`O=C(O)COc1ccc(C(=O)c2cccs2)c(Cl)c1Cl`: the AC50 in experiment [1] is greater than 30 µM.
In the case of `CC(C)c1nc(N(C)S(C)(=O)=O)nc(-c2ccc(F)cc2)c1/C=C/[C@@H](O)C[C@@H](O)CC(=O)O` [ROSUVASTATIN], the AC50 (on Adenosine receptor A2a; in experiment [2]; on Vasopressin V2 receptor; in experiment [3]; in experiment [4]; at Progesterone receptor) was greater than 30 µM in each case.
As for `C=CC[C@@H]1/C=C(\C)C[C@H](C)C[C@H](OC)[C@H]2O[C@@](O)(C(=O)C(=O)N3CCCC[C@H]3C(=O)O[C@H](/C(C)=C/[C@@H]3CC[C@@H](O)[C@H](OC)C3)[C@H](C)[C@@H](O)CC1=O)[C@H](C)C[C@@H]2OC` [TACROLIMUS ANHYDROUS], the AC50 on Adenosine receptor A2a was greater than 30 µM; in experiment [2], 7.2 µM and > 10 µM; on Vasopressin V2 receptor, greater than 30 µM; in experiment [3], greater than 30 µM; in experiment [4] it was greater than 30 µM; at Progesterone receptor it was greater than 30 µM.
Compound `CN(C)[C@@H]1C(O)=C(C(N)=O)C(=O)[C@@]2(O)C(O)=C3C(=O)c4c(O)ccc(Cl)c4[C@@](C)(O)[C@H]3C[C@@H]12` [CHLORTETRACYCLINE] returned a concentration at half-maximal activity (AC50) in experiment [1] greater than 30 µM.
Take `CO[C@H]1/C=C/O[C@@]2(C)Oc3c(C)c(O)c4c(O)c(c(/C=N/N5CCN(C)CC5)c(O)c4c3C2=O)NC(=O)/C(C)=C\C=C\[C@H](C)[C@H](O)[C@@H](C)[C@@H](O)[C@@H](C)[C@H](OC(C)=O)[C@@H]1C` [RIFAMPIN]: the AC50 on Adenosine receptor A2a was 13 µM; in experiment [2], greater than 30 µM; on Vasopressin V2 receptor, 30 µM; in experiment [3], greater than 30 µM; in experiment [4], greater than 30 µM; at Progesterone receptor, greater than 30 µM.
For the compound `CN(C)CCC[C@@]1(c2ccc(F)cc2)OCc2cc(C#N)ccc21` [ESCITALOPRAM], the AC50 (on Adenosine receptor A2a; in experiment [2]; at Vasopressin V2 receptor; in experiment [3]; in experiment [4]; on Progesterone receptor) was greater than 30 µM each time.
Consider `C[C@]1(Cn2ccnn2)[C@H](C(=O)O)N2C(=O)C[C@H]2S1(=O)=O` [TAZOBACTAM], for which, in experiment [1], the AC50 was greater than 30 µM.
Regarding `C[C@@H](Oc1cc(-c2cnn(C3CCNCC3)c2)cnc1N)c1c(Cl)ccc(F)c1Cl` [CRIZOTINIB], the half-maximal activity concentration (AC50) (on Adenosine receptor A2a; in experiment [2]; on Vasopressin V2 receptor; in experiment [3]; in experiment [4]; on Progesterone receptor) was greater than 30 µM in each case.
In experiment [1], `CC(CCc1ccccc1)NCC(O)c1ccc(O)c(C(N)=O)c1` (stereo not given) [LABETALOL] displayed an AC50 greater than 30 µM.

Usually AC50 stands for the concentration giving half of the maximal activity seen.

The values above are taken from ChEMBL document CHEMBL5291721, “A preclinical secondary pharmacology resource illuminates target-adverse drug reaction associations of marketed drugs” (Nat Commun, 2023).
